One compound from BindingDB's records for patent US8680132 (University of Michigan, 2014) can be followed below.

The target of this experiment is E3 ubiquitin-protein ligase Mdm2 (Homo sapiens, UniProt Q00987). The experiment in a line: Fluorescence-polarization Binding Assay. The following applies: pH 7.5.
Chain of E3 ubiquitin-protein ligase Mdm2 (Q00987 whole entry): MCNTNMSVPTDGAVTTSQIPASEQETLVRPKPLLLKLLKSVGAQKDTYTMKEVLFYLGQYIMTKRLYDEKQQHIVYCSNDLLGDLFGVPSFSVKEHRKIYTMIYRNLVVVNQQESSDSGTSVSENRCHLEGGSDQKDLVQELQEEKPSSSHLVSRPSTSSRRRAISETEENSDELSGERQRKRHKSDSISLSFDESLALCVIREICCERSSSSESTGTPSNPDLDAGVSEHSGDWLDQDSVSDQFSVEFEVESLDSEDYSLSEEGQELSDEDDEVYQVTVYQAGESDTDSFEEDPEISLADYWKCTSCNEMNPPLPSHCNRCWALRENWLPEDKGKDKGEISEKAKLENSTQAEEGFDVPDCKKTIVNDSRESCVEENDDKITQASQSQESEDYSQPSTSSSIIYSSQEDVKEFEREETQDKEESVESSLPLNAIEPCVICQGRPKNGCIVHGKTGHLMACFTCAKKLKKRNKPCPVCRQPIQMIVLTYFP

Usually IC50 stands for the concentration that inhibits the measured activity by half. High values mean weaker potency, low ones greater potency. The compound `O=C(NCC[C@H](O)CO)[C@@H]1N[C@H](CC2CCCCC2)[C@]2(C(=O)Nc3cc(Cl)c(F)cc32)[C@H]1c1cccc(Cl)c1` had an IC50 of under 1000 nM.
